The target in data set [1] is human recombinant β2 adrenergic receptor (Homo sapiens, UniProt P07550). In words: β2 adrenergic receptor inhibition assay. Format: binding. To be noted: read-out: β2 adrenergic % inh @1 μM. The procedure: (§1) hEGR study and the M2 and the β2 receptor inhibition assay were performed as previously reported.
(§2) The new G-quadruplex ligands were designed in an attempt to obtain molecules with improved toxicological and on-target profiles, but maintaining the same favorable chemical and pharmacological features of the lead compound 1. With the aim of selecting the best variants, a step by step comparative analysis of their off- and on-target properties was performed. Initially the new molecules were tested for their ability to interact with and inhibit the human recombinant β2 adrenergic and M2 muscarinic receptors, and to reduce the hERG tail current in a patch clamp assay. […] Therefore, we might expect that the new ligands would impair cardiac functionality to a lesser extent than the lead molecule does.

The subject of data set [2] is human 'normal' lung WI-38 cells. In words: MTT proliferation assay, WI-38. Format: cell-based. To be noted: for Ratio PMX WI38/HT29: GI50 WI-38 / GI50 HT-29; for GI50: Homo sapiens, WI-38, MTT, 96 hours. The procedure: (§3) Normal WI-38 diploid human lung fibroblasts and the human colorectal adenocarcinoma HT29 cells were obtained from American Type Culture Collection (Manassas, VA, USA). BJ fibroblasts expressing hTERT and SV40 early region (BJ-EHLT) were obtained as previously reported. Cells were grown in Dulbecco Modified Eagle Medium (D-MEM, Invitrogen Carlsbad, CA, USA) supplemented with 10% fetal calf serum, 2 mM L-glutamin and antibiotics.
(§4) MTT (3-(4,5-Dimethylthiazol-2-yl)-2,5-diphenyltetrazolium Bromide) assay was performed in treated and untreated cells for 96 hours. Cells were incubated with MTT solution (Sigma-Aldrich), and the purple formazan crystals were dissolved in isopropanol. Optical densities (OD) at 540 nm was determined on microplate reader.
(§5) Firstly, we investigated if they were able to efficiently promote growth inhibition of tumor cells without affecting the survival of normal cells in vitro. In Table 1 we report for each compound the concentration causing 50% of growth inhibition (GI50) calculated by performing a proliferation assay in the human colon cancer cell line HT-29 or in the human ‘normal’ lung WI-38 cells. […] On the basis of results described so far, we decided to exclude from the further analysis ligand 10 for its high value of hERG inhibition (95%) (Table 1).
In general terms: Tetrazolium assays rely on reduction of a dye to a coloured formazan, in cell work by metabolically active cells.

The test system of data set [3] is hairpin duplex, 5'-biotin-CGA3T3C(CT)2GA3T3CG (DNA, hairpin) CGAAATTTCCTCTGAAATTTCG
In words: SPR. A general note: In SPR one partner is held on a chip, and binding of the other changes the refractive index at the surface.

In data set [4] the test system is human colon cancer cell line HT-29. In words: MTT proliferation assay, HT-29. The format is cell-based. To be noted: 96 hours. On the procedure:
as §3, §4, §5

For data set [5], the system named is alternating hairpin duplex sequence 5'-biotin-CGA3T3C(CT)2GA3T3CG. In words: SPR binding to duplex DNA. The procedure: (§6) Oligonucleotides 5’-biotin-d [AG3 (T2AG3)3] quadruplex and 5’-biotin-CGA3T3C(CT)2GA3T3CG were purchased from Midland Certified Reagent Company (Midland, TX). Purification of DNA, preparation of solutions, collection of data, and analysis of results were conducted according to methods adopted in an earlier study.
(§7) This technique takes advantage of the refractive index change elicits by the binding of the drug with the h-Tel quadruplex DNA sequence 5’-d[AGGG(TTAGGG)3]-3’ or an alternating hairpin duplex sequence immobilized on a sensor chip surface.

Data set [6] relates to h-Tel quadruplex DNA sequence 5'-d[AGGG(TTAGGG)3]-3'. In words: SPR binding to quadruplex DNA. Set-up: species or system human. On the procedure:
as §6, §7

Data set [7] concerns BJ-EHLT fibroblasts. In words: γ-H2AX/PCNA co-immunostaining (replication-dependent DNA damage). The format is cell-based, human. To be noted: 24 hrs. On the procedure:
(§8) Cells were fixed in 2% formaldehyde and permeabilized in 0.25% Triton X100 in PBS for 5 min at room temperature. For immunolabeling, cells were incubated with primary antibody, then washed in PBS and incubated with the secondary antibodies. The following primary antibodies were used: pAb and mAb anti-TRF1(Abcam Ltd.; Cambridge UK); mAb (Upstate, Lake Placid, NY) and pAb anti-γH2AX (Abcam); mAb anti-PCNA (Sigma Chemicals, Milano, Italy). The following secondary antibody were used: TRITC conjugated Goat anti Rabbit, FITC conjugated Goat anti Mouse (Jackson ImmunoResearch Europe Ltd., Suffolk, UK). Fluorescence signals were recorded by using a Leica DMIRE2 microscope equipped with a Leica DFC 350FX camera and elaborated by a Leica FW4000 deconvolution software (Leica, Solms, Germany). This system permits to focus single planes inside the cell generating 3D highresolution images. For quantitative analysis of γH2AX positivity, 200 cells on triplicate slices were scored. For TIFs analysis, in each nucleus a single plane was analyzed and at least 50 nuclei per sample were scored.
Figure 2 DNA damage activation at telomeres. BJ-EHLT fibroblasts were treated for 24 hrs with compound 1 and the indicated ligands at the doses 0.1 (light-grey bars) and 0.5 μM (dark-grey bars). […] Cells with four or more γ-H2AX/TRF1 foci were scored as TIF positive. […]

For data set [8], the system named is h-Tel quadruplex DNA, 5'-biotin-d[AG3(T2AG3)3] (DNA, G4) AGGGTTAGGGTTAGGGTTAGGG
In words: SPR.

Data set [9] deals with T1, human recombinant M2 muscarinic receptor (Homo sapiens, UniProt P08172).
T1 sequence (P08172 1-466): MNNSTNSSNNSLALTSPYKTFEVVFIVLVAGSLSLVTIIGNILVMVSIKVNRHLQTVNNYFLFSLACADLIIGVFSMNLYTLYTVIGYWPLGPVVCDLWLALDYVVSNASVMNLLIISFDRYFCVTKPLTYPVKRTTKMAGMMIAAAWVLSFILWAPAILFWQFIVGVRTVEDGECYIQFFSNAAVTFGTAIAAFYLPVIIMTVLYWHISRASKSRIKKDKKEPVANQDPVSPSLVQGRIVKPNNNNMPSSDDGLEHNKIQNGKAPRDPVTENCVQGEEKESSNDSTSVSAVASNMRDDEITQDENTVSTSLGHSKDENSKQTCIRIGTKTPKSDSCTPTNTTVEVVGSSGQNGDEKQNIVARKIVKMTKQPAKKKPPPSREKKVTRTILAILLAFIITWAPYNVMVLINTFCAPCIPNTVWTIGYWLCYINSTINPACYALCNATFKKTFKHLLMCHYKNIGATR
In words: M2 muscarinic receptor inhibition assay. To be noted: read-out: Muscarinic (M2) % inh @1 μM. The format is binding. The procedure: as §1, §2

Data set [10] deals with BJ-EHLT fibroblasts. In words: γ-H2AX/TRF1 colocalization (TIFs, telomere uncapping). Format: cell-based, human. On the procedure:
as §8
Unfortunately, we were not able to test compounds 4, 5 and the 0,5 μM dose of 3 as they were fluorescent in both red and green channels. […] To ascertain whether γ-H2AX was phosphorylated in response to dysfunctional telomeres, double immunofluorescence experiments were processed by confocal microscopy. We observed that some of the γ-H2AX foci induced by G4-ligands colocalized with TRF1, a good marker for interphase telomeres, forming the so-called telomere dysfunction-induced foci (TIFs) (Figure 2B).
Figure 2 DNA damage activation at telomeres. BJ-EHLT fibroblasts were treated for 24 hrs with compound 1 and the indicated ligands at the doses 0.1 (light-grey bars) and 0.5 μM (dark-grey bars). Cells were processed for immunofluorescence (IF) using antibodies against γ-H2AX and TRF1 to mark DNA damage and telomeres respectively. Percentages of γ-H2AX- (A) and TIF-positive (B) treated and untreated cells are reported in the histograms. (C) Mean number of TIFs in the indicated samples. Cells with four or more γ-H2AX/TRF1 foci were scored as TIF positive. Error bars indicate the standard deviation. (D) Representative images of IF of untreated and 1, 3, 6 and 8-treated BJ-EHLT cells. Enlarged views of TIFs are reported on the right of the merged images. The images were acquired with a Leica Deconvolution microscope (magnification 100x). (E) Cells treated as in (A) were processed for IF of γ-H2AX and PCNA to mark replicating cells. Percentage of γ-H2AX+/PCNA- or γ-H2AX+/PCNA + nuclei in the indicated samples are reported in the histograms.

In data set [11] the target is hERG (Homo sapiens, UniProt Q12809). In words: hERG tail current inhibition in a patch clamp assay. Format: cell-based. To be noted: read-out: hERG % inh @10 μM. On the procedure:
as §1, §2
Background: hERG is a cardiac potassium channel; its block is linked to QT prolongation.

human recombinant β2 adrenergic receptor, sequence (P07550 whole entry): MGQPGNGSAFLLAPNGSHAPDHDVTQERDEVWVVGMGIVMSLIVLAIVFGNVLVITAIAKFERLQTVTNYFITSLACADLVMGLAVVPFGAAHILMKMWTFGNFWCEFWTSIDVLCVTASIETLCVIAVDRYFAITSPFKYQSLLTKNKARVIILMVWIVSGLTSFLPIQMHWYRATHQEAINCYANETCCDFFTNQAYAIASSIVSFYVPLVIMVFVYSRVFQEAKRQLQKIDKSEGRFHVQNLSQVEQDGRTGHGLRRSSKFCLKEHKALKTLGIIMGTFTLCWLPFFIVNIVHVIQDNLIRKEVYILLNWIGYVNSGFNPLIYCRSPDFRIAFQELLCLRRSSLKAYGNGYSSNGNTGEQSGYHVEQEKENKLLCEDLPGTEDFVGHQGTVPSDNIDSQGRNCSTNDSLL
hERG, sequence (Q12809 whole entry): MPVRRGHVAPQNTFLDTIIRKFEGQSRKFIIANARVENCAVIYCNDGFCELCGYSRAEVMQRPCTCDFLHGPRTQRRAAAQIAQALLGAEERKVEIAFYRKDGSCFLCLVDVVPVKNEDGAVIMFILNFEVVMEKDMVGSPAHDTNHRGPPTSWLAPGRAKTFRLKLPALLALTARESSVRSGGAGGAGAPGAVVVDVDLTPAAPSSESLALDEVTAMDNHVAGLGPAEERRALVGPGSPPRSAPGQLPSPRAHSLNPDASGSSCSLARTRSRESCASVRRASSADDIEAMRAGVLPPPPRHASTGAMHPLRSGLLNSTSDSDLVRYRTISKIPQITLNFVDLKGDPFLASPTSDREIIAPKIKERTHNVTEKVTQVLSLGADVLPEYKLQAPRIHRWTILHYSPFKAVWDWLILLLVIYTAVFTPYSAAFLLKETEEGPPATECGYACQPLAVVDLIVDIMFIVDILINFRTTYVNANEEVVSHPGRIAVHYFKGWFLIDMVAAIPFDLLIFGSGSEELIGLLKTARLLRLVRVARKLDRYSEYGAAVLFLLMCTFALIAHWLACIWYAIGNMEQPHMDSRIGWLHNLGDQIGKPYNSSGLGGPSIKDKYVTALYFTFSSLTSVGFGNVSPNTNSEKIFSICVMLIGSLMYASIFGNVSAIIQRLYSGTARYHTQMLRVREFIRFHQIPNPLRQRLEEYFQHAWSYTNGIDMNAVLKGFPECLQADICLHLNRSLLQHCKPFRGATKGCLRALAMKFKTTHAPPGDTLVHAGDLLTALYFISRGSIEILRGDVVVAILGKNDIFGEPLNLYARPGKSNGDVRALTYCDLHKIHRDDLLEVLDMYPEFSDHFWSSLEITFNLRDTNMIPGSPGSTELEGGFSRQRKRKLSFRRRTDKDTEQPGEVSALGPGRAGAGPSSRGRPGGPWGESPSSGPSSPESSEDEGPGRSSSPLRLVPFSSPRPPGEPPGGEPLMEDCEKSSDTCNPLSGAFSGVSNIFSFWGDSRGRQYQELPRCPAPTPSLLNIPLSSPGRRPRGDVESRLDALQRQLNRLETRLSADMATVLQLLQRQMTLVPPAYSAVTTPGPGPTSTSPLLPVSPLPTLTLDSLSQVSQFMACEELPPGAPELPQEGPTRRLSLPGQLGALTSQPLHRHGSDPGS

The term GI50 denotes the concentration giving 50% growth inhibition. Regarding `Cc1cc2c3c([n+](C)c4ccc(F)cc4c3c1)-c1cc(F)ccc1N2C` [Compound 1, 3,11-difluoro-6,8,13-trimethyl-8H-quino [4,3,2-kl] acridinium methosulfate, reference compound], the inhibition at 1 µM in [1] was determined as 100%; in data set [9], 98%. The “Ratio PMX WI38/HT29” value in [2] is recorded as 11,6. Further, the 50% growth inhibitory concentration (GI50) in [2] was determined as 7.2 µM; in data set [4], 0.62 µM. Also, the K in [3] is 600000 M⁻¹; in [8], 9e+06 M⁻¹. Moreover, the “Duplex DNA affinity K” value in data set [5] worked out at 600000 M⁻¹. For the same molecule, the “Quadruplex DNA affinity K” value in data set [6] amounted to 9e+06 M⁻¹. The “γ-H2AX foci formation relative to PCNA status” value in data set [7] was “almost exclusively restricted to PCNA-positive”.
Regarding `CN1c2ccccc2-c2c3c1cccc3c1ccc(NC(=O)C3CC3)cc1[n+]2C` [Compound 3], the inhibition at 1 µM in data set [1] was determined as 13%; in [9], 98%. For the same molecule, in [2], the “Ratio PMX WI38/HT29” value was 18,5. Further, the values for the 50% growth inhibitory concentration (GI50) in data set [2] and in [4] were 13 µM and 0.7 µM, respectively. The K in [3] came out at 100000 M⁻¹; in data set [8] it was 2.2e+07 M⁻¹. Moreover, in data set [10] (24 hrs), the “mean TIFs per nucleus” value is reported as “about seven”. The “percentage of cells with more than four γ-H2AX/TRF1 colocalizations (TIF-positive)” value in data set [10] (24 hrs, 0,1 μM) is “about 18%”. Also, in data set [5], the “Duplex DNA affinity K” value is 0,1 x10^6 M^−1. Also, in data set [6], the “Quadruplex DNA affinity K” value is 22,0 x10^6 M^−1. Also, the Quadruplex/duplex ratio in data set [6] (quadruplex vs duplex affinity) is on record as 244,4. Besides, the inhibition at 10 µM in [11] was 74%.

Values taken from paper PMC4193996 (Journal of Experimental & Clinical Cancer Research : CR, 2014).
